Laboratory results published in PMC1976805, “Preclinical pharmacokinetics of benznidazole” (British Journal of Cancer, 1984).
Like-named read-outs stand apart in the source and are kept apart here.

Assays:
[1] = Tissue penetration in dogs bearing spontaneous neoplasms; assay type: in vivo, dog; settings: for Kp: dog
From the text: Br. J. Cancer (1984), 50, 291-303 Preclinical pharmacokinetics of benznidazole P. Workman', R.A.S. White2, M.I. Walton', L.N. Owen2* & P.R. Twentyman' 1MRC Clinical Oncology and Radiotherapeutics Unit, MRC Centre, Hills Road, Cambridge CB2 2QH, and 2Department of Clinical Veterinary Medicine, University of Cambridge, Madingley Road, Cambridge CB3 OES, UK. […] We have investigated the detailed pharmacokinetics of benznidazole in mice, dogs and sheep to provide a data base for the estimation of doses required for chemosensitization in man. Pharmacokinetic behaviour was linear except at high doses in mice. Absorption was fairly rapid and bioavailability was complete following both i.p. administration in mice and oral administration in dogs. Elimination t4 values were longer than for MISO, being 90 min in mice, 4-5 h in sheep and 9-11 h in dogs. At doses giving linear kinetics, peak whole plasma concentrations per administered mgkg-1 were 0.75 jigml-1 for the i.p. route in mice and 1.8jugmlP' for the oral route in dogs. Though between 39 and 59% of plasma benznidazole was bound to protein, tissue penetration was generally good. Tissue/whole plasma ratios ranged from 59-99% for transplantable mouse tumours and from 14-70% for spontaneous dog neoplasms. Nervous tissue penetration was similar to that in tumours: brain/whole plasma ratios averaged between 61 and 76% in mice and 42% in dogs, while peripheral nerve/whole plasma ratios in dogs averaged 74%. Mean liver/whole plasma ratios were 42% and 71% in BALB/c and C3H/He mouse strains respectively. Only -5% of the administered dose was excreted unchanged in the urine, indicating the likelihood of extensive metabolism. […] Enhancement of CCNU response is likely to require circulating benznidazole concentrations of 10-30 pgml-1 and we predict that these will be obtained with oral doses of 6-20 mgkg- 1 in man. […] This enhancement, or chemosensitization, is usually greater than that seen in dose-limiting normal tissues, resulting in an improved therapeutic index. Because of the relatively high doses of MISO usually required for chemosensitization in mice (see above refs), and also because of its neurotoxicity in man (Dische et al., 1977), we have been interested in finding an improved chemosensitizer. […] The lipophilic ana- logue benznidazole (N-benzyl-(2-nitroimidazolyl) acetamide, Ro 07-1051; Radanil; Roche), the structure of which is shown in Figure 1, was selected for detailed study because of its ability to *Present address: Animal Health Trust, Small Animals Centre, Lanwades Park, Kennett, Newmarket, Suffolk CB8 7PN, UK. Correspondence: P. Workman. […] These findings have been confirmed independently by Siemann et al. (1983). Although benznidazole is used quite widely in South America to treat patients with the trypanosomal infection Chagas' disease or with mucotaneous Leishmaniasis (Barclay et al., 1978; Cerisola et al., 1978; Coura et al., 1978; Fava et al., 1978), apart from our preliminary studies (White et al., 1982) the only published data on its pharmaco- kinetics are for human plasma concentrations measured by polarography (Raaflub & Ziegler, 1979; Raaflub, 1980). Here we describe the pharmacokinetics of benznidazole in the mouse, sheep and dog, as determined by high-performance liquid chromatography (HPLC). […]

[2] = Whole plasma pharmacokinetics in dogs (HPLC); assay type: in vivo, dog
From the text: Br. J. Cancer (1984), 50, 291-303 Preclinical pharmacokinetics of benznidazole P. Workman', R.A.S. White2, M.I. Walton', L.N. Owen2* & P.R. Twentyman' 1MRC Clinical Oncology and Radiotherapeutics Unit, MRC Centre, Hills Road, Cambridge CB2 2QH, and 2Department of Clinical Veterinary Medicine, University of Cambridge, Madingley Road, Cambridge CB3 OES, UK. […] We have investigated the detailed pharmacokinetics of benznidazole in mice, dogs and sheep to provide a data base for the estimation of doses required for chemosensitization in man. Pharmacokinetic behaviour was linear except at high doses in mice. Absorption was fairly rapid and bioavailability was complete following both i.p. administration in mice and oral administration in dogs. Elimination t4 values were longer than for MISO, being 90 min in mice, 4-5 h in sheep and 9-11 h in dogs. At doses giving linear kinetics, peak whole plasma concentrations per administered mgkg-1 were 0.75 jigml-1 for the i.p. route in mice and 1.8jugmlP' for the oral route in dogs. Though between 39 and 59% of plasma benznidazole was bound to protein, tissue penetration was generally good. Tissue/whole plasma ratios ranged from 59-99% for transplantable mouse tumours and from 14-70% for spontaneous dog neoplasms. Nervous tissue penetration was similar to that in tumours: brain/whole plasma ratios averaged between 61 and 76% in mice and 42% in dogs, while peripheral nerve/whole plasma ratios in dogs averaged 74%. Mean liver/whole plasma ratios were 42% and 71% in BALB/c and C3H/He mouse strains respectively. Only -5% of the administered dose was excreted unchanged in the urine, indicating the likelihood of extensive metabolism. […] Enhancement of CCNU response is likely to require circulating benznidazole concentrations of 10-30 pgml-1 and we predict that these will be obtained with oral doses of 6-20 mgkg- 1 in man. […] This enhancement, or chemosensitization, is usually greater than that seen in dose-limiting normal tissues, resulting in an improved therapeutic index. Because of the relatively high doses of MISO usually required for chemosensitization in mice (see above refs), and also because of its neurotoxicity in man (Dische et al., 1977), we have been interested in finding an improved chemosensitizer. […] The lipophilic ana- logue benznidazole (N-benzyl-(2-nitroimidazolyl) acetamide, Ro 07-1051; Radanil; Roche), the structure of which is shown in Figure 1, was selected for detailed study because of its ability to *Present address: Animal Health Trust, Small Animals Centre, Lanwades Park, Kennett, Newmarket, Suffolk CB8 7PN, UK. Correspondence: P. Workman. […] These findings have been confirmed independently by Siemann et al. (1983). Although benznidazole is used quite widely in South America to treat patients with the trypanosomal infection Chagas' disease or with mucotaneous Leishmaniasis (Barclay et al., 1978; Cerisola et al., 1978; Coura et al., 1978; Fava et al., 1978), apart from our preliminary studies (White et al., 1982) the only published data on its pharmaco- kinetics are for human plasma concentrations measured by polarography (Raaflub & Ziegler, 1979; Raaflub, 1980). Here we describe the pharmacokinetics of benznidazole in the mouse, sheep and dog, as determined by high-performance liquid chromatography (HPLC). […] The Macmillan Press Ltd., 1984 292 P. WORKMAN et al. particularly on plasma and tumour concentrations, have been used as a basis for the estimation of the benznidazole doses required in a Phase I trial of benznidazole plus CCNU, at present ongoing in our Unit. Materials and methods Animals and tumours Adult inbred male BALB/c mice were obtained from OLAC (Southern) Ltd. (Bicester, UK) and adult inbred C3H/He mice of both sexes from OLAC and our own breeding colony. Mice were housed in plastic cages on sawdust bedding made from soft white woods, and allowed laboratory chow and water ad lib. They were used at 20-35 g body wt.

[3] = collie crossbred, dog, plasma, iv, 5 mg/kg, dog C, 5 mg kg-1 i.v.
[4] = collie crossbred, dog, plasma, iv, 5 mg/kg, dog D, 5 mg kg-1 i.v.
[5] = dog A, collie crossbred 18 kg, 25 mg kg-1 oral
[6] = dog B, collie crossbred 28 kg, 25 mg kg-1 oral

Which results are given for O=C(Cn1ccnc1[N+](=O)[O-])NCc1ccccc1 [benznidazole, N-benzyl-(2-nitroimidazolyl) acetamide]?
tissue/whole plasma ratio, overall mean + s.e. ([1]; 24 neoplastic tissue samples (excluding cyst fluid)): 50+3%; absolute neoplastic tissue concentration, overall mean+s.e. ([1]; 24 samples, 1.67-4.5 h, normalised to 12.5 mg kg-1 oral): 5.6 +0.5 µg g-1; Kp ([1]; liver/whole plasma, first of the two values obtained, read-out: liver/whole plasma ratio): 0.14; Kp ([1]; liver/whole plasma, second of the two values obtained, read-out: liver/whole plasma ratio): 0.51; Kp ([1]; tumour (spontaneous neoplastic tissue), po, neoplastic tissues, 12.5 (one dog 25) mg kg-1 oral, 1.67-4.5 h, read-out: tissue/whole plasma ratios, range): 0.14 to 0.7; AUC(0-inf) ([2]; beagle, dog, plasma, po, 50 mg/kg, dog E, 50 mg kg-1 oral): 760 µg·h/mL; half-life ([2]; beagle, dog, plasma, po, 50 mg/kg, dog E, 50 mg kg-1 oral, 95% confidence limits 5.3-6.1, read-out: elimination half-life t1/2β (converted)): 5.7 h; AUC(0-inf) ([2]; beagle, dog, plasma, po, 50 mg/kg, dog F, 50 mg kg-1 oral): 707 µg·h/mL; half-life ([2]; beagle, dog, plasma, po, 50 mg/kg, dog F, 50 mg kg-1 oral, 95% confidence limits 6.4-7.3, read-out: elimination half-life t1/2β (converted)): 6.8 h; Tmax ([2]; collie crossbred, beagle, dog, plasma, dogs, oral administration, usual range, read-out: time to peak plasma concentration): 1 to 5 h; Vd ([2]; collie crossbred, dog, plasma ultrafiltrate (unbound drug), iv, 5 mg/kg, dog C, 5 mg kg-1 i.v., read-out: volume of distribution (Vd area), unbound drug data): 2.05 L/kg; Vd ([2]; collie crossbred, dog, plasma ultrafiltrate (unbound drug), iv, 5 mg/kg, dog D, 5 mg kg-1 i.v., read-out: volume of distribution (Vd area), unbound drug data): 1.87 L/kg; half-life ([2]; collie crossbred, dog, plasma, dogs (large crossbred), summary value, read-out: elimination t1/2): 9 to 11 h; AUC(0-inf) [2, 3]: 105 µg·h/mL; clearance [2, 3]: 0.793 mL/min/kg; half-life ([2]; collie crossbred, dog, plasma, iv, 5 mg/kg, dog C, 5 mg kg-1 i.v., 95% confidence limits 7.1-8.1, read-out: elimination half-life t1/2β (converted)): 7.6 h; Vd ([2]; collie crossbred, dog, plasma, iv, 5 mg/kg, dog C, 5 mg kg-1 i.v., read-out: volume of distribution (Vd area), total plasma data): 0.52 L/kg; AUC(0-inf) [2, 4]: 138 µg·h/mL; clearance [2, 4]: 0.603 mL/min/kg; half-life ([2]; collie crossbred, dog, plasma, iv, 5 mg/kg, dog D, 5 mg kg-1 i.v., 95% confidence limits 9.2-11.4, read-out: elimination half-life t1/2β (converted)): 10.2 h; Vd ([2]; collie crossbred, dog, plasma, iv, 5 mg/kg, dog D, 5 mg kg-1 i.v., read-out: volume of distribution (Vd area), total plasma data): 0.53 L/kg; half-life ([2]; collie crossbred, dog, plasma, iv, 5 mg/kg, dogs C and D, 5 mg kg-1 i.v., read-out: distribution phase half-life t1/2α (estimated by back-stripping, about)): 0.167 to 0.417 h; AUC(0-inf) ([2]; collie crossbred, dog, plasma, po, 12.5 mg/kg, dog C, 12.5 mg kg-1 oral): 419 µg·h/mL; half-life ([2]; collie crossbred, dog, plasma, po, 12.5 mg/kg, dog C, 12.5 mg kg-1 oral, 95% confidence limits 9.7-13.3, read-out: elimination half-life t1/2β (converted)): 11.2 h; AUC(0-inf) ([2]; collie crossbred, dog, plasma, po, 12.5 mg/kg, dog D, 12.5 mg kg-1 oral): 450 µg·h/mL; half-life ([2]; collie crossbred, dog, plasma, po, 12.5 mg/kg, dog D, 12.5 mg kg-1 oral, 95% confidence limits 17.3-22.0, read-out: elimination half-life t1/2β (apparent) (converted)): 19.4 h; AUC(0-inf) ([2]; collie crossbred, dog, plasma, po, 25 mg/kg, dog A, 25 mg kg-1 oral, samples collected up to 9 h only): ~800 µg·h/mL; AUC(0-inf) ([2]; collie crossbred, dog, plasma, po, 25 mg/kg, dog B, 25 mg kg-1 oral, samples collected up to 9 h only): ~800 µg·h/mL; AUC(0-inf) ([2]; collie crossbred, dog, plasma, po, 25 mg/kg, dog C, 25 mg kg-1 oral): 687 µg·h/mL; half-life ([2]; collie crossbred, dog, plasma, po, 25 mg/kg, dog C, 25 mg kg-1 oral, 95% confidence limits 8.9-10.6, read-out: elimination half-life t1/2β (converted)): 9.7 h; AUC(0-inf) ([2]; collie crossbred, dog, plasma, po, 25 mg/kg, dog D, 25 mg kg-1 oral): 804 µg·h/mL; half-life ([2]; collie crossbred, dog, plasma, po, 25 mg/kg, dog D, 25 mg kg-1 oral, 95% confidence limits 8.9-10.6, read-out: elimination half-life t1/2β (converted)): 9.7 h; half-life ([2]; collie crossbred, dog, plasma, po, larger crossbred dogs, oral administration, read-out: elimination t1/2, range): 9.5 to 11.2 h; peak time [2, 5]: 5 h; peak whole plasma concentration [2, 5]: 48.4 µg/mL; peak time [2, 6]: 3 h; peak whole plasma concentration [2, 6]: 52.2 µg/mL
